The values below come from ChEMBL document CHEMBL5143643, “Development of disulfide-functionalized peptides covalently binding G protein-coupled receptors” (Bioorg Med Chem, 2022).

Structures are written as SMILES. *1 amine or outer side, *2 acyl side, *3 side chain or, on linkers, in order; H or OH if unused. Where a SMILES comes first, the peptide text is derived from it. Cysteamine = C(CS[*:2])N[*:1]

For test [1], the target named is T1, Neurotensin receptor type 1 (Homo sapiens, UniProt P30989). The test can be described thus: Displacement of [3H]NT(8-13) from human NTSR1 F2.65C mutant expressed in HEK293 cell membranes assessed as amount of blocking at 1 uM incubated for 120 mins by radioligand depletion assay. The note with it: Cell membrane.
Target sequence in this assay (P30989 whole entry): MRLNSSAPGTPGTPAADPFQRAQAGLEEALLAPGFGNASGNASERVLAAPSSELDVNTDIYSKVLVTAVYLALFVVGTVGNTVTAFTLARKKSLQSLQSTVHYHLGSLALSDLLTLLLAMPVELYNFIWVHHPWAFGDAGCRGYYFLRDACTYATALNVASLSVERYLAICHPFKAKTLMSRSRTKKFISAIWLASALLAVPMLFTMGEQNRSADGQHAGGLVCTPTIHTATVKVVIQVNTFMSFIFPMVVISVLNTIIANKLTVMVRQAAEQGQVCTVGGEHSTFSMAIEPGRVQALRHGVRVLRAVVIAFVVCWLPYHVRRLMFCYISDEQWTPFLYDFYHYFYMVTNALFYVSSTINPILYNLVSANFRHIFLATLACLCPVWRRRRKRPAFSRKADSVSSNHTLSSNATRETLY
In test [2] the target is T1, Neurotensin receptor type 1. The test can be described thus: Displacement of [3H]NT(8-13) from human NTSR1 F2.65C mutant expressed in HEK293 cell membranes by radioligand displacement assay. More on the design: species or system Cell membrane. (In a radioligand displacement assay an active substance lowers the binding of a labelled ligand.)
Target sequence in this assay (P30989 whole entry, looked up): as the sequence (P30989 whole entry) above
Test [3] addresses Neurotensin receptor type 2 (Homo sapiens, UniProt O95665). Nature of the test: Displacement of [3H]NT(8-13) from human NTSR2 expressed in HEK293 cell membranes by radioligand displacement assay. More on the design: species or system Cell membrane.
Test [4] addresses T1, Neurotensin receptor type 1. Nature of the test: Displacement of [3H]neurotensin from human NTSR1 expressed in CHO cell membranes by radioligand depletion assay. Also noted: species or system Cell membrane.
Target sequence in this assay (P30989 whole entry): as above

Usually Ki stands for the equilibrium dissociation constant of an inhibitor or competing ligand from its target. Low readings indicate a stronger hold on the target, high ones a looser hold on the target.

Chain of Neurotensin receptor type 2 (O95665 whole entry): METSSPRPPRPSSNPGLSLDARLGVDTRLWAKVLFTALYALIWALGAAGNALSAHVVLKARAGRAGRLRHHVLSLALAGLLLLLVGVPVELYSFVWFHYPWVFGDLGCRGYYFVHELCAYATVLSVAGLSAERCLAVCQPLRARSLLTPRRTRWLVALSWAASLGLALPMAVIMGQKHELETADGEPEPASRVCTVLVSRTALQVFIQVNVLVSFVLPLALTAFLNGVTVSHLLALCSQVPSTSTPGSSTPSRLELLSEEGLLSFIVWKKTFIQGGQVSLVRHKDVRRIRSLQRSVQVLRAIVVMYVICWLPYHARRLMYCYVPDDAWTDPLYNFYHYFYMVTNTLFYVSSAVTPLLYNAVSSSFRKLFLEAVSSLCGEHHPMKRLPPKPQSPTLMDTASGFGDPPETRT

Take `CC(C)C[C@H](NC(=O)[C@H](CSSCCN)NC(=O)[C@H](Cc1ccc(O)cc1)NC(=O)[C@@H]1CCCN1C(=O)[C@H](CCCNC(=N)N)NC(=O)[C@@H](N)CCCNC(=N)N)C(=O)O`: the Activity in test [1] is 61%. Besides, the figures for the Ki in test [2], in test [3] and in test [4] were 28 nM, 55 nM and 49 nM, respectively.

As for `CC[C@H](C)[C@H](NC(=O)[C@H](Cc1ccc(O)cc1)NC(=O)[C@@H]1CCCN1C(=O)[C@H](CCCNC(=N)N)NC(=O)[C@@H](N)CCCNC(=N)N)C(=O)N[C@@H](CC(C)C)C(=O)N[C@@H](CSSCCN)C(=O)O` (H-RRPYILC(Cysteamine)-OH), the Activity in test [1] came out at 6%. The Ki in test [2] amounted to 51 nM; in test [3] it was 4.2 nM; in test [4] it was 2.4 nM.

For the compound `CC[C@H](C)[C@H](NC(=O)[C@H](Cc1ccc(O)cc1)NC(=O)[C@@H]1CCCN1C(=O)[C@H](CCCNC(=N)N)NC(=O)[C@@H](N)CCCNC(=N)N)C(=O)N[C@@H](CC(C)C)C(=O)N[C@H](CCSSCCN)C(=O)O`, the Activity in test [1] was -2%. The Ki came out at 40 nM in test [2], 5.2 nM in test [3] and 7 nM in test [4] (cho).

Regarding `CC(C)C[C@H](NC(=O)[C@@H](CCSSCCN)NC(=O)[C@H](Cc1ccc(O)cc1)NC(=O)[C@@H]1CCCN1C(=O)[C@H](CCCNC(=N)N)NC(=O)[C@@H](N)CCCNC(=N)N)C(=O)O`, in test [1], the Activity was 88%. Besides, the Ki in test [2] is 15 nM; in test [3], 17 nM; in test [4] (cho) it was 5.3 nM.
